Experimental data reported in US5281616A, “Porphyrin and phthalocyanine antiviral compositions” (priority 1992, dated 1994).
Values joined by “and” are separate entries in the source; they are usually repeats but may differ in a detail not shown here. Identical values can stand only once. Counter-ions that a name gives are not always drawn. Like-named read-outs stand apart in the source and are kept apart here.

What was measured:
HIV-1 (strain LAV-1) = experiment: Inhibition of HIV replication in PBM cells (supernatant RT activity); type: cell-based
[1] = biological target: HIV-1 reverse transcriptase (Human immunodeficiency virus type 1 group M subtype B, UniProt P04585); experiment: Inhibition of purified HIV-1 reverse transcriptase (cell free); type: biochemical
Method: Methodology for Testing Antiviral Drugs for Inhibition of HIV-1 Reverse Transcriptase
Cells and viruses are cultured as described above. […] 12,431-439 (1973). Cocktail, template, compound to be tested and reverse transcriptase are mixed together on ice, then incubated for one hour at 37° C.. The DNA synthesized is acid precipitated and the radioactivity measured, as described by Eriksson, B., et al., Antimicrobial Agents and Chemotherapy 31, 600-604 ([…]).

[2] = tested on: herpes simplex virus type 1; experiment: Plaque assay in Vero cells, HSV type 1; type: cell-based, HSV-1
Method: (§1) Methodology for Testing Antiviral Drugs for Inhibition of Replication of HSV-1 and HSV-2
(§2) Compounds are tested for inhibition of herpes simplex virus type 1 and herpes simplex virus type 2 using the method of Schinazi, et al., Antimicrobial Agents and Chemotherapy 22, 499-507 (1982). This is a plaque assay using Vero cells (African green monkey cells) infected with HSV.

[3] = tested on: herpes simplex virus type 2; experiment: Plaque assay in Vero cells, HSV type 2; type: cell-based, HSV-2
Method: as §1, §2

influenza A = details: upon exposure to light; concentrations as low as; cited from earlier work
herpes simplex viruses = details: upon exposure to light; concentrations as low as; cited from earlier work
[4] = tested on: reverse transcriptase of Rauscher murine leukemia virus; details: cited from earlier work
[5] = tested on: reverse transcriptase of avian myeloblastosis virus; details: 10^-4 M; cited from earlier work
[6] = Human immunodeficiency virus 1, PBMC, 120 h, human PBM cells, RT activity in supernatant five days after infection, read-out: EC50, inhibition of HIV replication in PBM cells
[7] = human PBM cells, RT activity in supernatant five days after infection, read-out: EC50, inhibition of HIV replication in PBM cells
[8] = purified enzyme, one hour at 37° C., read-out: EC50, inhibition of HIV reverse transcriptase
[9] = Human alphaherpesvirus 1, Light, Vero cells plaque assay, read-out: EC50 HSV type 1 Light
[10] = Human alphaherpesvirus 2, Dark, Vero cells plaque assay, read-out: EC50 HSV type 2 Dark
[11] = Human alphaherpesvirus 2, Light, Vero cells plaque assay, read-out: EC50 HSV type 2 Light
[12] = Human alphaherpesvirus 1, Dark, Vero cells plaque assay, read-out: EC50 HSV type 1 Dark
[13] = Human immunodeficiency virus 1, PBMC, 120 h, read-out: EC50, inhibition of HIV replication in PBM cells, human PBM cells, RT activity in supernatant five days after infection
[14] = read-out: EC50, inhibition of HIV reverse transcriptase, purified enzyme, one hour at 37° C.

## C[n+]1cccc(-c2c3nc(c(-c4ccccc4)c4ccc([nH]4)c(-c4ccccc4)c4nc(c(-c5ccc[n+](C)c5)c5ccc2[nH]5)C=C4)C=C3)c1 [CP-3, 5,10-Diphenyl-15,20-di(N-methyl-3-pyridyl)-porphyrin Cl-]
HIV-1 (strain LAV-1); [6]
  EC50: 2.28 µM
[1]
  EC50: 41.6 µM

## C[n+]1ccc(-c2c3nc(c(-c4ccccc4)c4ccc([nH]4)c(-c4ccccc4)c4nc(c(-c5cc[n+](C)cc5)c5ccc2[nH]5)C=C4)C=C3)cc1 [CP-4, 5,10-Diphenyl-15,20-di(N-methyl-4-pyridyl)-porphyrin Cl-]
HIV-1 (strain LAV-1)
  Difference in inhibition of HIV, dark versus light: No significant differences in activity
HIV-1 (strain LAV-1); Human immunodeficiency virus 1, PBMC, 120 h, read-out: EC50, inhibition of HIV replication in PBM cells
  EC50: 0.38 µM
HIV-1 (strain LAV-1); Human immunodeficiency virus 1, PBMC, read-out: EC50, inhibition of HIV replication in PBM cells
  EC50: 0.43 µM
[1]
  EC50: 26.9 µM

## [Co+2].c1ccc2c(c1)-c1nc-2nc2[n-]c(nc3nc(nc4[n-]c(n1)c1ccccc41)-c1ccccc1-3)c1ccccc21 [CoPHTH, Cobalt phthalocyanine]
HIV-1 (strain LAV-1); [7]
  EC50: 100 µM

## C[n+]1ccc(-c2c3nc(c(-c4cc[n+](C)cc4)c4ccc([nH]4)c(-c4ccccc4)c4nc(c(-c5ccccc5)c5ccc2[nH]5)C=C4)C=C3)cc1.[Cu+2] [Cu-CP4, Cu(II)-5,10-diphenyl-15,20-di(N-methyl-4-pyridyl)-porphyrin]
HIV-1 (strain LAV-1); [7]
  EC50: 4.76 µM and 5.78 µM
[1]; [8]
  EC50: 57.4 µM

## [Cu+2].c1ccc2c(c1)-c1nc-2nc2[n-]c(nc3nc(nc4[n-]c(n1)c1ccccc41)-c1ccccc1-3)c1ccccc21 [CuPHTH, Copper phthalocyanine]
HIV-1 (strain LAV-1); [7]
  EC50: 46.9 µM

## C[n+]1ccc(-c2c3nc(c(-c4cc[n+](C)cc4)c4ccc([nH]4)c(-c4cc[n+](C)cc4)c4nc(c(-c5cc[n+](C)cc5)c5ccc2[nH]5)C=C4)C=C3)cc1.Cl.[Fe+3] [FeTMPyP, Fe(III)-tetra-(N-methyl-4-pyridyl)-porphyrin chloride]
HIV-1 (strain LAV-1); [7]
  EC50: 78.1 µM

## [Cl][Fe]1[n]2c3ccc2C(c2ccccc2)=C2C=CC(=N2)C(c2ccccc2)=c2ccc([n]21)=C(c1ccccc1)C1=NC(=C3c2ccccc2)C=C1 [FeTPPCl, Fe(III)-tetraphenylporphyrin chloride]
HIV-1 (strain LAV-1); [7]
  EC50: ~100 µM

## C[n+]1ccc(-c2c3nc(c(-c4ccccc4)c4ccc([nH]4)c(-c4ccccc4)c4nc(c(-c5cc[n+](C)cc5)c5ccc2[nH]5)C=C4)C=C3)cc1.[Ni+2] [Ni-CP4, Ni(II)-5,10-diphenyl-15,20-di(N-methyl-4-pyridyl)-porphyrin]
HIV-1 (strain LAV-1); [7]
  EC50: 3.44 µM and 6.54 µM
[1]; [8]
  EC50: 24.8 µM

## C=CC1=C(C)c2cc3[nH]c(cc4nc(cc5[nH]c(cc1n2)c(C)c5CCC(=O)O)C(CCC(=O)O)=C4C)c(C)c3C=C [PPIX, Protoporphyrin, disodium salt]
[1]
  EC50: > 100 µM
[2]; [9]
  EC50: < 0.01 µM
[3]; [10]
  EC50: 10 µM
[3]; [11]
  EC50: 0.05 µM

## C=CC1=C(C)c2cc3[nH]c(cc4nc(cc5[nH]c(cc1n2)c(C)c5C=C)C(C)=C4CCC(=O)OC)c(CCC(=O)OC)c3C [PPIXDME, Protoporphyrin IX dimethyl ester]
[1]
  EC50: > 100 µM
[2]; [12]
  EC50: > 10 µM
[2]; [9]
  EC50: 10 µM
[3]; [10]
  EC50: > 10 µM
[3]; [11]
  EC50: > 10 µM

## Cl[Si]1(Cl)n2c3c4ccccc4c2N=C2N=C(N=c4c5ccccc5c(n41)=NC1=NC(=N3)c3ccccc31)c1ccccc12 [SiPHTHCl2, Silicon phthalocyanine dichloride]
HIV-1 (strain LAV-1); [13]
  EC50: ≤ 1 µM

## C[n+]1ccc(-c2c3nc(c(-c4cc[n+](C)cc4)c4ccc([nH]4)c(-c4cc[n+](C)cc4)c4nc(c(-c5cc[n+](C)cc5)c5ccc2[nH]5)C=C4)C=C3)cc1 [TMPyP, Tetra-(N-methyl-4-pyridyl)-porphyrin tosylate salt]
[2]; Human alphaherpesvirus 1, Vero, read-out: EC50 HSV type 1 Dark
  EC50: 0.04 µM
[2]; Human alphaherpesvirus 1, Vero, read-out: EC50 HSV type 1 Light
  EC50: 0.03 µM
[3]; Human alphaherpesvirus 2, Vero, read-out: EC50 HSV type 2 Dark
  EC50: > 10 µM
[3]; Human alphaherpesvirus 2, Vero, read-out: EC50 HSV type 2 Light
  EC50: > 1 µM

## C[n+]1ccc(-c2c3nc(c(-c4ccccc4)c4ccc([nH]4)c(-c4cc[n+](C)cc4)c4nc(c(-c5ccccc5)c5ccc2[nH]5)C=C4)C=C3)cc1 [TP-3, 5,15-Diphenyl-10,20-di(N-methyl-4-pyridyl)-porphyrin Cl-]
[1]; [14]
  EC50: 7.3 µM

## C[n+]1cccc(-c2c3nc(c(-c4ccccc4)c4ccc([nH]4)c(-c4ccc[n+](C)c4)c4nc(c(-c5ccccc5)c5ccc2[nH]5)C=C4)C=C3)c1 [TP-4, 5,15-Diphenyl-10,20-di(N-methyl-3-pyridyl)-porphyrin Cl-]
HIV-1 (strain LAV-1); [6]
  EC50: < 1 µM
HIV-1 (strain LAV-1); [7]
  EC50: 0.76 µM
[1]; [14]
  EC50: 6.9 µM

## Cc1cccc(-c2c3nc(c(-c4cccc(C)c4)c4ccc([nH]4)c(-c4cccc(C)c4)c4nc(c(-c5cccc(C)c5)c5ccc2[nH]5)C=C4)C=C3)c1 [TPP(3-Me)4, Tetra-(3-methylphenyl)-porphyrin]
[2]; [12]
  EC50: > 10 µM
[2]; [9]
  EC50: > 10 µM
[3]; [11]
  EC50: > 10 µM

## O=C(O)c1ccc(-c2c3nc(c(-c4ccc(C(=O)O)cc4)c4ccc([nH]4)c(-c4ccc(C(=O)O)cc4)c4nc(c(-c5ccc(C(=O)O)cc5)c5ccc2[nH]5)C=C4)C=C3)cc1 [TPP(4-CO2 H)4, Tetra-(4-carboxyphenyl)-porphyrin]
[1]
  EC50: 1.1 µM
[2]; [12]
  EC50: 2.5 µM
[2]; [9]
  EC50: 10 µM
[3]; [10]
  EC50: > 10 µM
[3]; [11]
  EC50: > 10 µM

## Clc1ccc(-c2c3nc(c(-c4ccc(Cl)cc4)c4ccc([nH]4)c(-c4ccc(Cl)cc4)c4nc(c(-c5ccc(Cl)cc5)c5ccc2[nH]5)C=C4)C=C3)cc1 [TPP(4-Cl)4, Tetra-(4-chlorophenyl)-porphyrin]
HIV-1 (strain LAV-1); [6]
  EC50: ~100 µM

## Cc1ccc(-c2c3nc(c(-c4ccc(C)cc4)c4ccc([nH]4)c(-c4ccc(C)cc4)c4nc(c(-c5ccc(C)cc5)c5ccc2[nH]5)C=C4)C=C3)cc1 [TPP(4-Me)4, Tetra-(4-methylphenyl)-porphyrin]
[1]
  EC50: > 100 µM
[2]; [12]
  EC50: > 10 µM
[2]; [9]
  EC50: 1 µM
[3]; [10]
  EC50: 3.95 µM
[3]; [11]
  EC50: > 10 µM

## Oc1ccc(-c2c3nc(c(-c4ccc(O)cc4)c4ccc([nH]4)c(-c4ccc(O)cc4)c4nc(c(-c5ccc(O)cc5)c5ccc2[nH]5)C=C4)C=C3)cc1 [TPP(4-OH)4, Tetra-(4-hydroxyphenyl)-porphyrin]
HIV-1 (strain LAV-1); [6]
  EC50: 0.6 µM
HIV-1 (strain LAV-1); [7]
  EC50: 0.7 µM
[2]; [12]
  EC50: > 10 µM
[2]; [9]
  EC50: > 10 µM
[3]; [10]
  EC50: > 10 µM
[3]; [11]
  EC50: > 10 µM

## C1=Cc2nc1c(-c1ccccc1)c1ccc([nH]1)c(-c1ccccc1)c1nc(c(-c3ccccc3)c3ccc([nH]3)c2-c2ccccc2)C=C1 [TPP, Meso-tetraphenylporphine]
HIV-1 (strain LAV-1); [13]
  EC50: 13.7 µM
HIV-1 (strain LAV-1); read-out: EC50, inhibition of HIV replication in PBM cells, human PBM cells, RT activity in supernatant five days after infection
  EC50: > 10 µM
[1]
  EC50: > 100 µM
[2]; [12]
  EC50: > 10 µM
[2]; [9]
  EC50: 10 µM
[3]; [10]
  EC50: > 10 µM
[3]; [11]
  EC50: > 10 µM

## CC1=C(CCC(=O)O)c2cc3[nH]c(cc4nc(cc5[nH]c(cc1n2)c(C)c5C(C)O)C(C)=C4C(C)O)c(C)c3CCC(=O)O (stereo not drawn) [hematoporphyrin]
Influenza A
  Concentration inhibiting in vitro replication of influenza A: 0.5 µg/mL
Herpes simplex viruses
  Concentration inhibiting in vitro replication of herpes simplex viruses: 0.5 µg/mL

## Copper phthalocyanine 3,4'4'',4'''-tetrasulfonic acid [(CuPHTHS4)(3,4,4,4)]
HIV-1 (strain LAV-1); [7]
  EC50: ≤ 1 µM

## Copper phthalocyanine tetrasulfonic acid tetra-sodium salt [CuPHTHS4]
HIV-1 (strain LAV-1); [7]
  EC50: 22.4 µM

## Copper-4,4',4'',4'''-tetra-aza-29H, 31H-phthalocyanine [CuPHTHN4]
HIV-1 (strain LAV-1); [7]
  EC50: 100 µM

## Fe(III)-mu-oxo-dimer of tetraphenyl-porphyrin [μ-oxo-TPP]
HIV-1 (strain LAV-1); [7]
  EC50: > 100 µM

## Fe(III)-tetra-(4-methylphenyl)-porphyrin chloride [(FeTPP)(4-Cl)4]
HIV-1 (strain LAV-1); [7]
  EC50: > 100 µM

## Hemin, bovine, (chloro protoporphyrin IX Fe(III)) [FePPIXCl]
HIV-1 (strain LAV-1); [7]
  EC50: 49.3 µM
[1]; [8]
  EC50: 20.5 µM
[4]
  Concentration inhibiting reverse transcriptase activity: 10^-4 M
[5]
  Inhibition of reverse transcriptase activity (in words): not

## Nickel phthalocyanine tetrasulfonic acid [NiPHTHS4]
HIV-1 (strain LAV-1); [7]
  EC50: 1.06 µM

## Reactive Blue 15
HIV-1 (strain LAV-1); [7]
  EC50: ≤ 1 µM
